Results published in US12624067B2, “Cyclic peptide, cell scaffold material, cell separating material, and medium” (FUJIFILM Corporation, priority 2019, dated 2026).
Numbered stars: 1 amine (or outer) side, 2 acyl side, 3 side chain; on linkers, the order of the positions; unused ones are H or OH. Bridge positions count the residues as written; N and C are the ends. Square brackets hold non-standard residues; d marks the D form. Peptide text beside a SMILES is read from it. Pen = CC(C)(S)[C@H](N)C(=O)O; hCys = N[C@@H](CCS)C(=O)O; Orn = NCCC[C@H](N)C(=O)O; Dab = NCC[C@H](N)C(=O)O; Dap = NC[C@H](N)C(=O)O; X1 = O=C(C[*:1])[*:2]; X2 = O=C(C[*:2])[*:1]

Assays:
[1] = Evaluation of molecule stability (alkali treatment, LC/MS residual rate); type: physicochemical; settings: 500 μM peptide plus equivalent of 1 M sodium hydroxide, 15° C., 20 minutes, LC/MS peak area
Protocol: The molecule stability of the cyclic peptide was evaluated by analyzing the alkali-treated cyclic peptide aqueous solution by liquid chromatography mass spectroscopy (LC/MS).
The alkali treatment was carried out by the following method. A 500 μM cyclic peptide aqueous solution was prepared, an equivalent of 1 M sodium hydroxide aqueous solution was added to this aqueous solution, and the resultant mixture was incubated at 15° C. for 20 minutes to obtain an alkali-treated cyclic peptide aqueous solution. The cyclic peptide residual rate was calculated by setting the total area of all peaks of the cyclic peptide before alkali treatment in LC/MS to 100% and determining the proportion of the total area of all peaks in LC/MS of the alkali-treated cyclic peptide aqueous solution, and the molecule stability was evaluated according to the following evaluation standards. It is preferable that the evaluation result satisfies the evaluation standard A, B, or C.
The conditions of the LC/MS used for the evaluation of molecule stability were set as follows. • LC apparatus: Prominence series (pump, column oven, autosampler, detector) (manufactured by Shimadzu Corporation) • MS detector: LC/MS2010EV (manufactured by Shimadzu Corporation) • Column: Cadenza CD-C18, inner diameter 2.0 mm×length 250 mm, particle size: 3 μm (manufactured by Imtakt Corporation) • Eluent A: a solution (pH 3) containing 10 mM ammonium formate as a solute, where the solvent is 100% water. • Eluent B: a solution (pH 3) containing 10 mM ammonium formate as a solute, where the solvent is acetonitrile/water=90/10. • Flow rate: 0.2 mL/min • Injection volume: 4 μL • Gradient: 0% to 30%: Eluent B (0 to 30 minutes), 100%: Eluent B (30 to 40 minutes), 0%: Eluent B (40 to 60 minutes)(B indicates the eluent B) • Column temperature: 45° C. • Ionization method: electrospray ionization (ESI) positive, ESI negative

human integrin αvβ5 = human integrin αvβ5 (Homo sapiens, UniProt P06756+P18084); assay: Evaluation of integrin binding property (surface plasmon resonance, Biacore 3000, immobilized cyclic peptide); settings: peptide immobilized on CM5 sensor chip; human integrin αvβ5 30-1,000 nM, 25° C., HEPES buffer with 5 mM magnesium chloride; read-out: Integrin binding property (dissociation constant)
Protocol: A commercially available CM5 sensor chip (a carboxymethyl dextran introduction type, manufactured by GE Healthcare) was set in a surface plasmon resonance apparatus (product name: Biacore 3000, manufactured by GE Healthcare), the sensor was stabilized at a flow rate of 10 μL/min of a 4-(2-hydroxyethyl)-1-piperazineethanesulfonic acid (HEPES) buffer solution (20 mM HEPES-HCl, 150 mM NaCl, pH 7.4) for surface plasmon resonance (SPR), and 70 μL of a mixed aqueous solution of 0.2 M 1-(3-dimethylaminopropyl)-3-ethylcarbodiimide (EDC) and 0.04 M N-hydroxysuccinimide (NHS) was added thereto. Then, 300 μL of the sample solution of each of the above cyclic peptides diluted to 0.2 g/L with the HEPES buffer solution was supplied to the sensor chip, blocking treatment was subsequently carried out with an ethanolamine solution, and washing was carried out with a sodium hydroxide aqueous solution, whereby immobilization was carried out. However, only for the cyclic peptide 22, in which the number of lysine residues having an amino group as the immobilizing functional group was 1, the sample solution to be supplied to the sensor chip was set to 5,000 μL instead of 300 μL. Similarly; 70 μL of the mixed aqueous solution of 0.2 M EDC and 0.04 M NHS was added to another flow channel of the same sensor chip without immobilizing the sample, and then blocking treatment and washing treatment were carried out. Hereinafter, the obtained immobilization-treated sensor chip is referred to as an “immobilization-treated sensor chip A”.
After adding human integrin αvβ5 for 10 minutes at 25° C., which was diluted to 30 nM using a HEPES buffer solution to which magnesium chloride was added to 5 mM, in each flow channel of the immobilization-treated sensor chip A prepared in (1) above, the same HEPES buffer solution (containing 5 mM magnesium chloride) was allowed to flow as a running buffer for 30 minutes, and measurement was carried out with Biacore 3000.
Then, a regeneration treatment of removing human integrin αvβ5 was carried out by allowing a 0.5 M EDTA aqueous solution to flow through each flow channel for 10 minutes. Further, the above-described measurement process consisting of adding integrin for 10 minutes, allowing a running buffer to flow for 30 minutes, carrying out measurement with Biacore 3000, and carrying out regeneration treatment with 0.5 M EDTA aqueous solution was carried out in the same manner for 100 nM human integrin αvβ5, 300 nM human integrin αvβ5, and 1,000 nM human integrin αvβ5. Dissociation constant between the cyclic peptide and human integrin αvβ5 was calculated from the difference between the value measured by Biacore 3000 in the flow channel immobilized with the cyclic peptide and the value measured by Biacore 3000 in the flow channel unimmobilized with the cyclic peptide, in a case where each concentration of human integrin αvβ5 was allowed to flow; and the integrin binding property was evaluated according to the following evaluation standards. It is preferable that the evaluation result satisfies the evaluation standard A, B, or C.

human integrin αvβ5, sequence (P06756 31-889 limits assumed): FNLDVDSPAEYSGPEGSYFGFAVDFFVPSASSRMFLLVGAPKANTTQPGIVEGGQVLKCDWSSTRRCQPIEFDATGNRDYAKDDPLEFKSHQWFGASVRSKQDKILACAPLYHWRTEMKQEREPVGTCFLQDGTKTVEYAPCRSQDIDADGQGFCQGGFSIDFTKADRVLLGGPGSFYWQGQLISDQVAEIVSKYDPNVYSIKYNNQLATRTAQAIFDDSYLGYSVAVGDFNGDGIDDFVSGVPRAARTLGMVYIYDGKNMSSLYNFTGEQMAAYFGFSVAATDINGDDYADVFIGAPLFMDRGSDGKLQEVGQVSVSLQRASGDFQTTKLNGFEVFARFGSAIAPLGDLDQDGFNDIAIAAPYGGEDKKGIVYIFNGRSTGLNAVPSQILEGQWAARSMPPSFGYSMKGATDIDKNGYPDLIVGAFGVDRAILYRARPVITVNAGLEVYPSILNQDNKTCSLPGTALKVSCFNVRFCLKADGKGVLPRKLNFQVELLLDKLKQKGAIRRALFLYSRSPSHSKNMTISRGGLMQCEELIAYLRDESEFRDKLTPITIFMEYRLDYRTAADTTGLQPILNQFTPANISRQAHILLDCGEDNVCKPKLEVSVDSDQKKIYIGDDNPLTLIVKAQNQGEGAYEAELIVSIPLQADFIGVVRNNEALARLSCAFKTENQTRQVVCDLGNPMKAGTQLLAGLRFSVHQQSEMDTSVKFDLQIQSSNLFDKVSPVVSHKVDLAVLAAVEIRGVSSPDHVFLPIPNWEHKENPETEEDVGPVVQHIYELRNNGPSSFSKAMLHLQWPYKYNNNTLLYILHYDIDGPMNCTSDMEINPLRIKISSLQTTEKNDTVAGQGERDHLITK
human integrin αvβ5, sequence (P06756 891-1048 partner limits assumed): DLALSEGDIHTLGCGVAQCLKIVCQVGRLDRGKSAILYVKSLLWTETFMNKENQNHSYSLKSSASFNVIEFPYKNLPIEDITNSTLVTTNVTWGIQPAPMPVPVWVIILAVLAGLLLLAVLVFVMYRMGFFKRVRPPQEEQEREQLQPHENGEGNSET
human integrin αvβ5, sequence (P18084 24-799): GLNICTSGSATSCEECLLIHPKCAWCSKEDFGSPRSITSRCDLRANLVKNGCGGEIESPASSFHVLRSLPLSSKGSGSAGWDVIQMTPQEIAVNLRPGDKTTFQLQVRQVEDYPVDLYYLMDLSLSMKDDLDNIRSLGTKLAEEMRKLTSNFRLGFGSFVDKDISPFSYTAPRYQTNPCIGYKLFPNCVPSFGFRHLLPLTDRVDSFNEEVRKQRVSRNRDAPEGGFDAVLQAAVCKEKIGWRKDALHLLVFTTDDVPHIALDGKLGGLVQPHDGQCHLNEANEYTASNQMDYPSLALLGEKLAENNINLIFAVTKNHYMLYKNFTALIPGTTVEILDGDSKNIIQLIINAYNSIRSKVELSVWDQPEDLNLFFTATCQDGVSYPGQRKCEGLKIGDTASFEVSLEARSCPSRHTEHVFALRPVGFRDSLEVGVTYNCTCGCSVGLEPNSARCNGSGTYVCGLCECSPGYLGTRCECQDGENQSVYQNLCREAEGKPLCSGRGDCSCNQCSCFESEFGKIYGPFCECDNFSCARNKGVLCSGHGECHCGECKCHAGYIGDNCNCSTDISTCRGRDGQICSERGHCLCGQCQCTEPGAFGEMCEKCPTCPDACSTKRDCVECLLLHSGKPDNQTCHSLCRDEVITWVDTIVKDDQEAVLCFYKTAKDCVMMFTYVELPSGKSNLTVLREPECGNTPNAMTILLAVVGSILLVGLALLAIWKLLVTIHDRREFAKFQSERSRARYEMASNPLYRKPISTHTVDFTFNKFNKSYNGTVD

| Structure (SMILES) | Kd (human integrin αvβ5) [nM] | Molecule stability (cyclic peptide residual rate) [1] |
| --- | --- | --- |
| CC[C@H](C)[C@@H]1NC(=O)CSCC[C@@H](C(=O)N[C@@H](CCCCN)C(=O)N[C@@H](CCCCN)C(=O)N[C@@H](CCCCN)C(=O)O)NC(=O)[C@H](Cc2ccccc2)NC(=O)[C@@H]2CCCCNC(=O)CSCC[C@H](NC1=O)C(=O)N[C@@H](CCCNC(=N)N)C(=O)NCC(=O)N[C@@H](CC(=O)O)C(=O)N2 [Cyclic peptide 11] ({CH2CO}-I[hCys]RGDKF[hCys]KKK-OH; linker 2-6 via X1; thioether N-8) | < 50 | A (The residual rate of the cyclic peptide is 70% or more.) |
| CC[C@H](C)[C@@H]1NC(=O)CSC[C@@H](C(=O)N[C@@H](CCCCN)C(=O)N[C@@H](CCCCN)C(=O)N[C@@H](CCCCN)C(=O)O)NC(=O)[C@H](Cc2ccccc2)NC(=O)[C@@H]2CCCCNC(=O)CSC[C@H](NC1=O)C(=O)N[C@@H](CCCNC(=N)N)C(=O)NCC(=O)N[C@@H](CC(=O)O)C(=O)N2 [Cyclic peptide 12] ({CH2CO}-ICRGDKFCKKK-OH; linker 2-6 via X1; thioether N-8) | < 50 | B (The residual rate of the cyclic peptide is 50% or more and less than 70%.) |
| CC[C@H](C)[C@@H]1NC(=O)CSC[C@@H](C(=O)N[C@@H](CCCCN)C(=O)N[C@@H](CCCCN)C(=O)N[C@@H](CCCCN)C(=O)O)NC(=O)[C@H](Cc2ccccc2)NC(=O)[C@@H]2CCSCC(=O)NC[C@H](NC1=O)C(=O)N[C@@H](CCCNC(=N)N)C(=O)NCC(=O)N[C@@H](CC(=O)O)C(=O)N2 [Cyclic peptide 13] ({CH2CO}-I[Dap]RGD[hCys]FCKKK-OH; linker 2-6 via X2; thioether N-8) | 50 to 100 | A (The residual rate of the cyclic peptide is 70% or more.) |
| CC[C@H](C)[C@@H]1NC(=O)CSCC[C@@H](C(=O)N[C@@H](CCCCN)C(=O)N[C@@H](CCCCN)C(=O)N[C@@H](CCCCN)C(=O)O)NC(=O)[C@H](Cc2ccccc2)NC(=O)[C@@H]2CSCC(=O)NC[C@H](NC1=O)C(=O)N[C@@H](CCCNC(=N)N)C(=O)NCC(=O)N[C@@H](CC(=O)O)C(=O)N2 [Cyclic peptide 14] ({CH2CO}-I[Dap]RGDCF[hCys]KKK-OH; linker 2-6 via X2; thioether N-8) | < 50 | A (The residual rate of the cyclic peptide is 70% or more.) |
| CC[C@H](C)[C@@H]1NC(=O)CSC[C@@H](C(=O)N[C@@H](CCCCN)C(=O)N[C@@H](CCCCN)C(=O)N[C@@H](CCCCN)C(=O)O)NC(=O)[C@H](Cc2ccccc2)NC(=O)[C@@H]2CCCCNC(=O)CSCC[C@H](NC1=O)C(=O)N[C@@H](CCCNC(=N)N)C(=O)NCC(=O)N[C@@H](CC(=O)O)C(=O)N2 [Cyclic peptide 17] ({CH2CO}-I[hCys]RGDKFCKKK-OH; linker 2-6 via X1; thioether N-8) | < 50 | A (The residual rate of the cyclic peptide is 70% or more.) |
| CC[C@H](C)[C@@H]1NC(=O)CSC[C@@H](C(=O)N[C@@H](CCCCN)C(=O)N[C@@H](CCCCN)C(=O)N[C@@H](CCCCN)C(=O)O)NC(=O)[C@H](Cc2ccccc2)NC(=O)[C@@H]2CCNC(=O)CSCC[C@H](NC1=O)C(=O)N[C@@H](CCCNC(=N)N)C(=O)NCC(=O)N[C@@H](CC(=O)O)C(=O)N2 [Cyclic peptide 19] ({CH2CO}-I[hCys]RGD[Dab]FCKKK-OH; linker 2-6 via X1; thioether N-8) | 50 to 100 | A (The residual rate of the cyclic peptide is 70% or more.) |
| CC[C@H](C)[C@@H]1NC(=O)CSCC[C@@H](C(=O)N[C@@H](CCCCN)C(=O)O)NC(=O)[C@H](Cc2ccccc2)NC(=O)[C@@H]2CCCCNC(=O)CSCC[C@H](NC1=O)C(=O)N[C@@H](CCCNC(=N)N)C(=O)NCC(=O)N[C@@H](CC(=O)O)C(=O)N2 [Cyclic peptide 22] ({CH2CO}-I[hCys]RGDKF[hCys]K-OH; linker 2-6 via X1; thioether N-8) | < 50 | A (The residual rate of the cyclic peptide is 70% or more.) |
| CC[C@H](C)[C@@H]1NC(=O)CSC(C)(C)[C@@H](C(=O)N[C@@H](CCCCN)C(=O)N[C@@H](CCCCN)C(=O)N[C@@H](CCCCN)C(=O)O)NC(=O)[C@H](Cc2ccccc2)NC(=O)[C@@H]2CCSCC(=O)NCCC[C@H](NC1=O)C(=O)N[C@@H](CCCNC(=N)N)C(=O)NCC(=O)N[C@@H](CC(=O)O)C(=O)N2 [Cyclic peptide 23] ({CH2CO}-I[Orn]RGD[hCys]F[Pen]KKK-OH; linker 2-6 via X2; thioether N-8) | < 50 | A (The residual rate of the cyclic peptide is 70% or more.) |

Second part, led by results:

| Kd (human integrin αvβ5) [nM] | Structure (SMILES) | Molecule stability (cyclic peptide residual rate) [1] |
| --- | --- | --- |
| < 50 | CC[C@H](C)[C@@H]1NC(=O)CSC[C@@H](C(=O)N[C@@H](CCCCN)C(=O)N[C@@H](CCCCN)C(=O)N[C@@H](CCCCN)C(=O)O)NC(=O)[C@H](Cc2ccccc2)NC(=O)[C@@H]2CCSCC(=O)NCCC[C@H](NC1=O)C(=O)N[C@@H](CCCNC(=N)N)C(=O)NCC(=O)N[C@@H](CC(=O)O)C(=O)N2 [Cyclic peptide 15] ({CH2CO}-I[Orn]RGD[hCys]FCKKK-OH; linker 2-6 via X2; thioether N-8) | A (The residual rate of the cyclic peptide is 70% or more.) |
| < 50 | CC[C@H](C)[C@@H]1NC(=O)CSCC[C@@H](C(=O)N[C@@H](CCCCN)C(=O)N[C@@H](CCCCN)C(=O)N[C@@H](CCCCN)C(=O)O)NC(=O)[C@H](Cc2ccccc2)NC(=O)[C@@H]2CSCC(=O)NCCC[C@H](NC1=O)C(=O)N[C@@H](CCCNC(=N)N)C(=O)NCC(=O)N[C@@H](CC(=O)O)C(=O)N2 [Cyclic peptide 16] ({CH2CO}-I[Orn]RGDCF[hCys]KKK-OH; linker 2-6 via X2; thioether N-8) | A (The residual rate of the cyclic peptide is 70% or more.) |
| < 50 | CC[C@H](C)[C@@H]1NC(=O)CSCC[C@@H](C(=O)N[C@@H](CCCCN)C(=O)N[C@@H](CCCCN)C(=O)N[C@@H](CCCCN)C(=O)O)NC(=O)[C@H](Cc2ccccc2)NC(=O)[C@@H]2CCCCNC(=O)CSC[C@H](NC1=O)C(=O)N[C@@H](CCCNC(=N)N)C(=O)NCC(=O)N[C@@H](CC(=O)O)C(=O)N2 [Cyclic peptide 18] ({CH2CO}-ICRGDKF[hCys]KKK-OH; linker 2-6 via X1; thioether N-8) | A (The residual rate of the cyclic peptide is 70% or more.) |
| < 50 | CC[C@H](C)[C@@H]1NC(=O)CSCC[C@@H](C(=O)N[C@@H](CCCCN)C(=O)N[C@@H](CCCCN)C(=O)N[C@@H](CCCCN)C(=O)O)NC(=O)[C@H](Cc2ccccc2)NC(=O)[C@@H]2CCNC(=O)CSC[C@H](NC1=O)C(=O)N[C@@H](CCCNC(=N)N)C(=O)NCC(=O)N[C@@H](CC(=O)O)C(=O)N2 [Cyclic peptide 20] ({CH2CO}-ICRGD[Dab]F[hCys]KKK-OH; linker 2-6 via X1; thioether N-8) | A (The residual rate of the cyclic peptide is 70% or more.) |
